Assay results taken from patent US12247045B2, “MAP4K4 inhibitors” (Imperial College Innovations Limited, priority 2018, dated 2025).
Read-outs that look alike come from different tables or passages of the source.

Experiments:
Type in all cases: biochemical
MLK3/MAP3K11 = MLK3/MAP3K11 (Homo sapiens, UniProt Q16584); assay: Kinase selectivity panel, MLK3/MAP3K11; conditions: for fold selectivity MAP4K4 over MLK3/MAP3K11: in favour of MAP4K4; for IC50: read-out: pIC50 MLK3/MAP3K11 (converted)
From the text: (§1) The data in Table 42 also provides the fold selectivity of the two compounds in favour of MAP4K4 over the tested kinase. The fold selectivity is indicated in parenthesis.

ABL1 = ABL1 (Homo sapiens, UniProt P00519); assay: Kinase selectivity panel, ABL1; conditions: for fold selectivity MAP4K4 over ABL1: in favour of MAP4K4; for IC50: read-out: pIC50 ABL1 (converted)
ABL1, sequence (P00519 whole entry, species assumed): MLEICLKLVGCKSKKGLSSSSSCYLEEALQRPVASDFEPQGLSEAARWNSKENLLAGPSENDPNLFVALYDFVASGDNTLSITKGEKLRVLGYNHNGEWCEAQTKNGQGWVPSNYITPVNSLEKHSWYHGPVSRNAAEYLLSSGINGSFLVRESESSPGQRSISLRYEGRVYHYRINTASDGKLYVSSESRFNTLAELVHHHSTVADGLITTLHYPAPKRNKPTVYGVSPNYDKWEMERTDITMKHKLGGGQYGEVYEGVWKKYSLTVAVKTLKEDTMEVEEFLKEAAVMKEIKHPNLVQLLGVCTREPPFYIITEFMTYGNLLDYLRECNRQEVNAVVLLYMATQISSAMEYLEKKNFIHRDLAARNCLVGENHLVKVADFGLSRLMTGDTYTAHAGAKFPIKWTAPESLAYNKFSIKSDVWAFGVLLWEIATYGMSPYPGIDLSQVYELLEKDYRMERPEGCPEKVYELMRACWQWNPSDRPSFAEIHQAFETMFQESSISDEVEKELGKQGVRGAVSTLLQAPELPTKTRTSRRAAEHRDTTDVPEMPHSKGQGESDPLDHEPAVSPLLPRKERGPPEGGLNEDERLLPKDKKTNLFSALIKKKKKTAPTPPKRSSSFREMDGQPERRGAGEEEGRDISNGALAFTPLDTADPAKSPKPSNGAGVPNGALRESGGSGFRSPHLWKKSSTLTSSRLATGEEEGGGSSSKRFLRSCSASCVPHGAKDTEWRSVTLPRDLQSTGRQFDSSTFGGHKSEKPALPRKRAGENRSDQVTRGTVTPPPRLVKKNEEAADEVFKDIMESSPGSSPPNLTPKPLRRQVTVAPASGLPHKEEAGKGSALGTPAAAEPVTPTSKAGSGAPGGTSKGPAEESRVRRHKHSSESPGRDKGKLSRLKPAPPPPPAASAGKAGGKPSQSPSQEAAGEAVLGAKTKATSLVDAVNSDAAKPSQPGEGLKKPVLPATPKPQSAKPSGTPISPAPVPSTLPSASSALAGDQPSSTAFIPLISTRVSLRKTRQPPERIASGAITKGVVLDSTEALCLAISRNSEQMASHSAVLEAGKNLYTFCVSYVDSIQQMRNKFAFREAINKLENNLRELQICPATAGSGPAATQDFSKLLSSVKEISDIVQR
From the text: as §1

KHS/MAP4K5 = KHS/MAP4K5 (Homo sapiens, UniProt Q9Y4K4); assay: Kinase selectivity panel, KHS/MAP4K5; conditions: for fold selectivity MAP4K4 over KHS/MAP4K5: in favour of MAP4K4; for IC50: read-out: pIC50 KHS/MAP4K5 (converted)
KHS/MAP4K5, sequence (Q9Y4K4 whole entry): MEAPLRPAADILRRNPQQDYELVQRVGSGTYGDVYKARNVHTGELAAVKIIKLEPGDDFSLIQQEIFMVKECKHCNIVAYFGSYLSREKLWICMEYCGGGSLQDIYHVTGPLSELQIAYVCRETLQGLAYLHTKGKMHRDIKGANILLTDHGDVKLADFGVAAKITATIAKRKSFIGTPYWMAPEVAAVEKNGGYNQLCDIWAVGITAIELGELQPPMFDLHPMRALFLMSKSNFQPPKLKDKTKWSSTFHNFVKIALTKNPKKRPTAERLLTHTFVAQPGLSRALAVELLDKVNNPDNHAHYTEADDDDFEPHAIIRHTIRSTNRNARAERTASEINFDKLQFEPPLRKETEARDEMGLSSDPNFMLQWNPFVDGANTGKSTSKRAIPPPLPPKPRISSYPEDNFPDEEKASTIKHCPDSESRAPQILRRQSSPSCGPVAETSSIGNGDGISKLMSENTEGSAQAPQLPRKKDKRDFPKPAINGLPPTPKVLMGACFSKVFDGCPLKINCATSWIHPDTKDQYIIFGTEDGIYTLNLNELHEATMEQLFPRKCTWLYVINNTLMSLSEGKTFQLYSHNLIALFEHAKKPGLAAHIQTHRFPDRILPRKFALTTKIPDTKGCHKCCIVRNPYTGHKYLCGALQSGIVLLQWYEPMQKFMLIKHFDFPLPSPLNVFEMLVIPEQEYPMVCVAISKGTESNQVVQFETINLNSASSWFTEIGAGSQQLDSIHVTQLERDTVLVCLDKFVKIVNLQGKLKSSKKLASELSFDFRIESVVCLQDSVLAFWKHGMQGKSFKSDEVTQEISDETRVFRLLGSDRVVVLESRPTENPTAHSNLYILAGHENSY
From the text: as §1

GLK/MAP4K3 = molecular target: T1, GLK/MAP4K3 (Homo sapiens, UniProt Q8IVH8); assay: Kinase selectivity panel, GLK/MAP4K3; conditions: for fold selectivity MAP4K4 over GLK/MAP4K3: in favour of MAP4K4; for IC50: read-out: pIC50 GLK/MAP4K3 (converted)
T1 sequence (Q8IVH8 1-894): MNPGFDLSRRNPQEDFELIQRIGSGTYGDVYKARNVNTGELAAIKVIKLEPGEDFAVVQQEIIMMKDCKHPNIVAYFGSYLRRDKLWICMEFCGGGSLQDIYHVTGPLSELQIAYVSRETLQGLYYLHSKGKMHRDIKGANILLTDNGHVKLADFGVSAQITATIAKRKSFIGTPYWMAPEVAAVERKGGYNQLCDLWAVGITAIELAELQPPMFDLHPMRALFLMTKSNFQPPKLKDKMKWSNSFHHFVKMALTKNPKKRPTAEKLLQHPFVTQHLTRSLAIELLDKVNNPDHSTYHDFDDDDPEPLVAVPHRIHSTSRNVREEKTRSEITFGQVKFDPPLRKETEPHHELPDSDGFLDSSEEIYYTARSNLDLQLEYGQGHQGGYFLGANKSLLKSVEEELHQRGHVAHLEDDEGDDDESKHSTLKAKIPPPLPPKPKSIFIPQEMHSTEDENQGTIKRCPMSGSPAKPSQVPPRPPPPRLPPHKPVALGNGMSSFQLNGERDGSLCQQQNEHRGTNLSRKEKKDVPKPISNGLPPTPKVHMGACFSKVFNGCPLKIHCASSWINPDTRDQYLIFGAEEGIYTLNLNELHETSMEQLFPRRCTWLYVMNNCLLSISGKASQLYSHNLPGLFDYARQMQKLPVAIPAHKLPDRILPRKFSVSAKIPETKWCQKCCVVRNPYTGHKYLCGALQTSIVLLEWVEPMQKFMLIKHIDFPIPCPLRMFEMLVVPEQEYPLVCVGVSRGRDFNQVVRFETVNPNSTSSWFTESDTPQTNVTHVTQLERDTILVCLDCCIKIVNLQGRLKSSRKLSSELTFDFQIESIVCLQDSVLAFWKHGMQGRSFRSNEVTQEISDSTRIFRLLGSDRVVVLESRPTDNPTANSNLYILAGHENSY
From the text: as §1

TNIK/MAP4K7 = TNIK/MAP4K7 (Homo sapiens, UniProt Q9UKE5); assay: Kinase selectivity panel, TNIK/MAP4K7; conditions: read-out: pIC50 TNIK/MAP4K7 (converted)
TNIK/MAP4K7, sequence (Q9UKE5 whole entry): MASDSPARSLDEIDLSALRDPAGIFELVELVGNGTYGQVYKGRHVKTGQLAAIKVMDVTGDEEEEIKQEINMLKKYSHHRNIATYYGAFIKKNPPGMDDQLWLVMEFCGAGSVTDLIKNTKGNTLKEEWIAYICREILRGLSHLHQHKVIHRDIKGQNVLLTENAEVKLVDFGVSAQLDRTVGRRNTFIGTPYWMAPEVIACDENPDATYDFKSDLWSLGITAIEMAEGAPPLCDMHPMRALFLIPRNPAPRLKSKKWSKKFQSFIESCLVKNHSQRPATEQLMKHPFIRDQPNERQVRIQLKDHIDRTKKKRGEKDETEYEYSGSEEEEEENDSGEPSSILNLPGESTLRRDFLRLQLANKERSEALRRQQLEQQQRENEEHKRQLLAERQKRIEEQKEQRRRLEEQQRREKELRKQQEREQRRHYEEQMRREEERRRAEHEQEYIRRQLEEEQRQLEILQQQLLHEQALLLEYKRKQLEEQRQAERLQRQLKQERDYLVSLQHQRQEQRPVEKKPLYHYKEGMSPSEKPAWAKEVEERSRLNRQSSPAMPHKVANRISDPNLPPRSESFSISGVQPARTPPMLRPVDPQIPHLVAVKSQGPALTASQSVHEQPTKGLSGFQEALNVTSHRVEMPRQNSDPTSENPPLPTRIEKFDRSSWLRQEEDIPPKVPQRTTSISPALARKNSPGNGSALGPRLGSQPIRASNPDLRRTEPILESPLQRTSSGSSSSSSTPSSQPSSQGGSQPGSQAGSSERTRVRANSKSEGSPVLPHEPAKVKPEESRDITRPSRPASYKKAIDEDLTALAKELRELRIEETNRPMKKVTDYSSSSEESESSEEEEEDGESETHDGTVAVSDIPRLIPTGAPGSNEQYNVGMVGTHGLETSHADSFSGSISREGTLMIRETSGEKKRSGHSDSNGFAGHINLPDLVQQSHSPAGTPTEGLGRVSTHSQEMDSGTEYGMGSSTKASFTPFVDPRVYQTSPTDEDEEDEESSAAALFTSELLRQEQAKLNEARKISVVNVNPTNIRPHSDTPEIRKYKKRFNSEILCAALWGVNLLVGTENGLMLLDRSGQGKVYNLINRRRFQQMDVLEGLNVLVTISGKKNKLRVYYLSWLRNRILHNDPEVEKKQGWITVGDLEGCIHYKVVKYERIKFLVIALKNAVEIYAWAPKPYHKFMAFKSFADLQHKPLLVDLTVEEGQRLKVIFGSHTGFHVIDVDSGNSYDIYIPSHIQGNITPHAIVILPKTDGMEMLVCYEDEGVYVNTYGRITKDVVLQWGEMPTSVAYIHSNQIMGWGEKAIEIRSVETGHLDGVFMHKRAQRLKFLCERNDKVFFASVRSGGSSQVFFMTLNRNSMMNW
From the text: as §1

GCK/MAP4K2 = molecular target: T2, GCK/MAP4K2 (Homo sapiens, UniProt Q12851); assay: Kinase selectivity panel, GCK/MAP4K2; conditions: for fold selectivity MAP4K4 over GCK/MAP4K2: in favour of MAP4K4; for IC50: read-out: pIC50 GCK/MAP4K2 (converted)
T2 sequence (Q12851 1-820): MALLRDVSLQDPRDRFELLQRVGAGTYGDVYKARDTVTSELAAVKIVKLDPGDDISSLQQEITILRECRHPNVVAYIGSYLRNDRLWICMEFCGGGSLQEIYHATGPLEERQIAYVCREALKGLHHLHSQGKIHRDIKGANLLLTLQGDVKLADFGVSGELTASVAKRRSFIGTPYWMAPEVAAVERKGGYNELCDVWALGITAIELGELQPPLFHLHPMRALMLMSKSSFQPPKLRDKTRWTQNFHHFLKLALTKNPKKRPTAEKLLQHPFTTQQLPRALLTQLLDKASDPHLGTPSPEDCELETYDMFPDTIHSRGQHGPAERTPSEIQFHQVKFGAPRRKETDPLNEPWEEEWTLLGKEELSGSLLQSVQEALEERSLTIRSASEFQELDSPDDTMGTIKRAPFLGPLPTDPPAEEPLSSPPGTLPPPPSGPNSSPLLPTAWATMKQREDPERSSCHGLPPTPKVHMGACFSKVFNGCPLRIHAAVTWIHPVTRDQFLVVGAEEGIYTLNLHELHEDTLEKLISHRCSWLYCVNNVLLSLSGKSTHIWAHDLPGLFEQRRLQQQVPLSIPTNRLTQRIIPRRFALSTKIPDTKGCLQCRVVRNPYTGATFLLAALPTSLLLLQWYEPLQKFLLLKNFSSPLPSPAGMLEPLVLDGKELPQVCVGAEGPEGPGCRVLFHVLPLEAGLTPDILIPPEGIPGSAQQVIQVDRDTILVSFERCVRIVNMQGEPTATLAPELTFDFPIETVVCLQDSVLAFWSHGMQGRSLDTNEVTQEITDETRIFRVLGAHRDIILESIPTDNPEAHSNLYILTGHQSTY
From the text: as §1

NUAK1 = molecular target: T3, NUAK1 (Homo sapiens, UniProt O60285); assay: Kinase selectivity panel, NUAK1; conditions: for fold selectivity MAP4K4 over NUAK1: in favour of MAP4K4; for IC50: read-out: pIC50 NUAK1 (converted)
T3 sequence (O60285 1-661): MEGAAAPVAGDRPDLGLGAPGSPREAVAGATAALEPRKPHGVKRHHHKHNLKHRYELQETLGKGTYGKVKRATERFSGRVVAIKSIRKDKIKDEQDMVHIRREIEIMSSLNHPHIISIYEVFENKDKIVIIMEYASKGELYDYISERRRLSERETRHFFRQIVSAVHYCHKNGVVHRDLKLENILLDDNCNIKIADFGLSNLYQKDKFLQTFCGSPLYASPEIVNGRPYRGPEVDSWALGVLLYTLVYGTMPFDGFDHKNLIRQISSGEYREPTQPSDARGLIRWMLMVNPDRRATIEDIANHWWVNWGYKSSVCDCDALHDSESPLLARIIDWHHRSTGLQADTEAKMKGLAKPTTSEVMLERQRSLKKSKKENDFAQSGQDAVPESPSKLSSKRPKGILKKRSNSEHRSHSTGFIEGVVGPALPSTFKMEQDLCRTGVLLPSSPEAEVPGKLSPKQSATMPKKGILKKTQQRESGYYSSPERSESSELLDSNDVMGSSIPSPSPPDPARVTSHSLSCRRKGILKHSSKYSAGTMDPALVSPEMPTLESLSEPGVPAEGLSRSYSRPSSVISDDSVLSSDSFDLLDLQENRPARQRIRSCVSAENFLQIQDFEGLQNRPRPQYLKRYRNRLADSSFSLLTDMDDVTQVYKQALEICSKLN
From the text: as §1

[1] = molecular target: T4, human MAP4K4 kinase domain (Homo sapiens, UniProt O95819); assay: MAP4K4 kinase activity, CisBio HTRF Transcreener ADP assay
T4 construct: 0.5 nM human MAP4K4 kinase domain (Invitrogen); purchased Invitrogen
T4 sequence (O95819 25-289 limits assumed): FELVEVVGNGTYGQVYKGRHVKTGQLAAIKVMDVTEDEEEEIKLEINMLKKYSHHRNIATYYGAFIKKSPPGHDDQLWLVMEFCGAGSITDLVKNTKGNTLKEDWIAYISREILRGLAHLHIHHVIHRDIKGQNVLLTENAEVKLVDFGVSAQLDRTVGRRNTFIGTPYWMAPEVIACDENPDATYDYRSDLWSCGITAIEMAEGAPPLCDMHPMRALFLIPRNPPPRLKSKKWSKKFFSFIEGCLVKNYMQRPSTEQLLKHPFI
From the text: Compounds of the present invention were screened for their inhibitory activity against MAP4K4, versus selected off-target hits found with early members of this chemical series. MAP4K4 kinase activity was monitored using the CisBio HTRF Transcreener ADP assay, a competitive immunoassay with a reproducible Z′>0.6. In the detection step, endogenous ADP and d2-labeled ADP compete for binding an anti-ADP monoclonal antibody labelled with Eu^3+ cryptate. A ratiometric fluorescent read-out is used at 665 and 620 nm. Reactions were performed in the presence of 1% DMSO with ATP added at Km (10 μM), 0.5 nM human MAP4K4 kinase domain (Invitrogen), 1 μM biotin-myelin basic protein as substrate (Invitrogen), and extension of reaction time to 2 h. Assays were run in Greiner low volume plates with a final reaction volume of 10 μl. The MAP4K4 inhibition data are provided in Table 41 below for selected compounds of the present invention. The data has been categorised based on the IC50 value of the compound as “A”, “B” or “C”. IC50: A≤100 nM; 100 nM<B≤1 μM; 1 μM<C; nd=not determined.

MLK1/MAP3K9 = MLK1/MAP3K9 (Homo sapiens, UniProt P80192); assay: Kinase selectivity panel, MLK1/MAP3K9; conditions: for fold selectivity MAP4K4 over MLK1/MAP3K9: in favour of MAP4K4; for IC50: read-out: pIC50 MLK1/MAP3K9 (converted)
From the text: as §1

MINK1/MAP4K6 = MINK1/MAP4K6 (Homo sapiens, UniProt Q8N4C8); assay: Kinase selectivity panel, MINK1/MAP4K6; conditions: read-out: pIC50 MINK1/MAP4K6 (converted)
From the text: as §1

Aurora B = Aurora B (Homo sapiens, UniProt Q96GD4); assay: Kinase selectivity panel, Aurora B; conditions: for fold selectivity MAP4K4 over Aurora B: in favour of MAP4K4
Aurora B, sequence (Q96GD4 whole entry): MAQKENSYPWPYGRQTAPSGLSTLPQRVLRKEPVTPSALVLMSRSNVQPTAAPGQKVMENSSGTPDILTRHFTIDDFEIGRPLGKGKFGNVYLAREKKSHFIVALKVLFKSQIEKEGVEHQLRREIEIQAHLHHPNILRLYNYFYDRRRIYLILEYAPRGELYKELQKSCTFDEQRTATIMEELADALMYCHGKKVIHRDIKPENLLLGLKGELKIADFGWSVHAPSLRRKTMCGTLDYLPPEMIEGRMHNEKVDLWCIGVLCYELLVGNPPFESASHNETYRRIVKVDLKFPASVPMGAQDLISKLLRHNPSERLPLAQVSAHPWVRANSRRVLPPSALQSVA
From the text: as §1

[2] = IC50 category, ATP at Km (10 μM), 0.5 nM kinase domain, 2 h, read-out: MAP4K4
[3] = read-out: pIC50 MAP4K4 (converted)

MLK3/MAP3K11, sequence (Q16584 whole entry): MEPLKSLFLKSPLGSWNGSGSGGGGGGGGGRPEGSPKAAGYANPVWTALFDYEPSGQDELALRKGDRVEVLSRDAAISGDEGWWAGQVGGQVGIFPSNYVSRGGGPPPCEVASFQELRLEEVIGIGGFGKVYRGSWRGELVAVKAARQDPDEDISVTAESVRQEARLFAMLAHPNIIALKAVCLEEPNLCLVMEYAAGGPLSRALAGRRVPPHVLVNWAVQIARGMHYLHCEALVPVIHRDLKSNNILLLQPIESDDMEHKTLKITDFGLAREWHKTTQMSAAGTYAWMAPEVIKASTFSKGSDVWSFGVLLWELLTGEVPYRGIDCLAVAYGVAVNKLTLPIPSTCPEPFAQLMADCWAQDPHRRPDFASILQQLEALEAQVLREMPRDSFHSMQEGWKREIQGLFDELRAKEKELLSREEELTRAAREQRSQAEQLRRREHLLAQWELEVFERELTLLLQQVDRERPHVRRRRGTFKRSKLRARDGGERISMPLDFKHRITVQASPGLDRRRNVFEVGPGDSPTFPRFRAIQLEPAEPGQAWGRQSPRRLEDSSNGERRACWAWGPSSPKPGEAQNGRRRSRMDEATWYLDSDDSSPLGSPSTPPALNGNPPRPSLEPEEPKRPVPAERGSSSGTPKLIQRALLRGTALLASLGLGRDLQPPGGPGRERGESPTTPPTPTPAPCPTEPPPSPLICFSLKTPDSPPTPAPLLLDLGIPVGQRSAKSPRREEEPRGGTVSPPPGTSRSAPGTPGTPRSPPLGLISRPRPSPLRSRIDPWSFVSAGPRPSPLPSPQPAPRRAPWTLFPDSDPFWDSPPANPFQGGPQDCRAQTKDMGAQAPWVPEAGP

Row | Structure (SMILES) | fold selectivity MAP4K4 over MLK3/MAP3K11 (MLK3/MAP3K11) | IC50 (MLK3/MAP3K11) [µM] | fold selectivity MAP4K4 over ABL1 (ABL1) | IC50 (ABL1) [µM] | fold selectivity MAP4K4 over KHS/MAP4K5 (KHS/MAP4K5) | IC50 (KHS/MAP4K5) [µM] | fold selectivity MAP4K4 over GLK/MAP4K3 (GLK/MAP4K3) | IC50 (GLK/MAP4K3) [µM] | IC50 (TNIK/MAP4K7) [µM] | fold selectivity MAP4K4 over GCK/MAP4K2 (GCK/MAP4K2) | IC50 (GCK/MAP4K2) [µM] | fold selectivity MAP4K4 over NUAK1 (NUAK1) | IC50 (NUAK1) [µM] | IC50 [1, 2] [µM] | IC50 [1, 3] [µM] | fold selectivity MAP4K4 over MLK1/MAP3K9 (MLK1/MAP3K9) | IC50 (MLK1/MAP3K9) [µM] | IC50 (MINK1/MAP4K6) [µM] | fold selectivity MAP4K4 over Aurora B (Aurora B) | IC50 (Aurora B; read-out: pIC50 Aurora B (converted)) [µM]
1 | COCCOc1ccc(-c2cn(-c3cccnc3)c3nc[nH]c(=O)c23)cc1 [Ex-67] | (63) fold | 1.58 | (>1000) fold | 31.6 | (63) fold | 1.58 | (1000) fold | 25.1 | 0.2 | (79) fold | 2 | (50) fold | 1.26 | ≤ 0.1 | 0.0251 |  |  |  |  | 
2 | O=c1[nH]cnc2c1c(-c1cnn(CCO)c1)cn2-c1ccccc1 [Ex-27] | (5) fold | 0.0794 |  |  |  |  |  |  | 0.02 | (31) fold | 0.501 | (13) fold | 0.2 | ≤ 0.1 | 0.0158 | (5) fold | 0.0794 | 0.01 |  | 
3 | COCCOc1ccc(-c2cn(-c3cccc(F)c3)c3nc[nH]c(=O)c23)cn1 [Ex-29] | (25) fold | 0.501 |  |  | (50) fold | 1 | (>1000) fold |  | 0.0316 | (50) fold | 1 | (16) fold | 0.316 | ≤ 0.1 | 0.02 | (20) fold | 0.398 | 0.0126 | (>1000) fold | 
4 | O=c1[nH]cnc2c1c(-c1ccc(OCC(O)CN3CCOCC3)cc1)cn2-c1cccnc1 (stereo not shown) [Ex-54] | (13) fold | 0.398 | (126) fold | 3.98 | (6) fold | 0.2 | (50) fold | 1.58 | 0.0501 | (5) fold | 0.158 | (4) fold | 0.126 | ≤ 0.1 | 0.0316 | (100) fold | 3.16 | 0.0316 |  | 
5 | O=c1[nH]cnc2c1c(-c1cnn(C3COC3)c1)cn2-c1ccccc1 [Ex-26] | (1) fold | 0.0316 |  |  |  |  |  |  | 0.316 | (16) fold | 0.501 | (3) fold | 0.1 | ≤ 0.1 | 0.0316 | (8) fold | 0.126 | 0.0631 |  | 
6 | COCCOc1ccc(-c2cn(-c3ccncc3)c3nc[nH]c(=O)c23)cc1 [Ex-28] | (79) fold | 1 | (501) fold | 6.31 | (63) fold | 0.794 |  |  | 0.0501 | (79) fold | 1 | (251) fold | 3.16 | ≤ 0.1 | 0.0126 | (398) fold | 5.01 | 0.0316 | (501) fold | 6.31
